Converted amounts (≈) assume the structure as drawn. Where two headings read alike, the source gives them in different places.
Experiments:
[1] = test system: mouse tumor cell line L1210; test: Anticancer activity on L1210 in BDF1 mice, increased life span (Example 6, Table 2); type: in vivo; details: for Increased life span (%) / Average survival date: 15 times; for Average survival date: control 17.8
Description: The mice used were 5-week-old BDF1 male mice (19 to 20 g) that were purchased from Charles River Japan, and adapted for 1 week. The breeding condition of the mice was set to a temperature of 24±2° C. and a humidity of 50±1° C. Purified water for drinking was supplied to the mice twice a week, and straws and cages were changed once a week. The experiment was performed using two mice per group. As the tumor cell line, an L1210 mouse blood tumor cell line was used, and the cell line was sub-cultured in a Falcon culture flask twice or three times, washed with a phosphorous buffer solution (pH 7.2), and quantified under a microscope to produce a cell suspension of 1×10^7/ml, and 100 (1×10^6) ml of the cell suspension was abdominally administered to the mouse using 1 ml of a disposable sterilized injector. The drug was orally administered 24 hours after the cellular transplantation. […] The samples were administered to the mice five times a week for 3 weeks, for a total of 15 times, starting 24 hours after the tumor cell administration. The anticancer activity was determined as increased life span to control.

[2] = test system: mouse tumor cell line L1210; test: Anticancer activity on L1210 in BDF1 mice, increased life span (Example 34, Table 4); type: in vivo; details: for Average life maintenance day: control 8.8
Description: Capecitabine (5′-deoxy-N^4-(pentyloxycarbonyl)-5-fluorocytosine (in Formula 1, R^a=pentyl, R^b=hydrogen) which has good anticancer activity among. 5′-deoxy-N-alkyloxycarbonyl-5-fluorocytosine derivatives disclosed in European Patent No. 602454 was used for a control, 5′-deoxy-N^4-propazyloxycarbonyl-5-fluorocytosine-5′-carboxylic acid (Formula 2a) obtained from Example 3 was used for a sample, and anticancer activity to the mouse tumor cell line L1210 was measured.
The mice used were 5-week-old BDF1 male mice (19 to 20 g) that were purchased from Charles River Japan, and adapted for 1 week. The breeding condition of the mouse was set to a temperature of 24±2° C. and a humidity of […] Purified water for drinking was supplied to the mice twice a week, and straws and cages were changed once a week. The experiment was performed using two mice per group. As the tumor cell line, an L1210 mouse blood tumor cell line was used, the cell line was sub-cultured in a Falcon culture flask twice or three times, washed with a phosphorous buffer solution (pH 7.2), quantified under a microscope to produce a cell suspension of 1×10^7/ml, and 100 (1×10^6) […] of the cell suspension was abdominally administered to the mouse using 1 ml of a disposable sterilized injector. The drug was orally administered 24 hours after the cellular transplantation. The concentration of the administered capecitabine was 1.2, 5.7, 28.8, 144, and 720 mg/kg/100 μl for respective mice, and that of the compound of 2a of the present invention was 1.2, 5.8, 28.8 mg/kg/100 μl for respective mice. The capecitabine was dissolved in dimethylsulfoxide and suspended in 0.5% carboxymethyl cellulose, and the compound of 2a was dissolved in distilled water. The samples were administered to the mice five times a week for 3 weeks, for a total of 15 times, starting 24 hours after the tumor cell administration. The anticancer activity was determined as increased life span to control.

[3] = test system: mouse tumor cell line L1210; test: Anticancer activity on L1210 in BDF1 mice, increased life span (Example 35, Table 5); type: in vivo; details: 15 times; for Average life day: control 17.8
Description: The mice used were 5-week-old BDF1 male mice (19 to 20 g) that were purchased from Charles River Japan, and adapted for 1 week. The breeding condition of the mice was set to a temperature of 24±2° C. and a humidity of […] Purified water for drinking water was supplied to the mice twice a week, and straws and cages were changed once a week. The experiment was performed using two mice per group. […] The drug was orally administered 24 hours after the cellular transplantation. […] The capecitabine was dissolved in dimethylsulfoxide and suspended in 0.5% carboxymethyl cellulose, and the compound of 2a was dissolved in distilled water. […] The anticancer activity was determined as increased life span.

[4] = test system: SK-OV-3 (ovarian cancer); test: MTT cell toxicity to human cancer cells, SK-OV-3; type: cell-based; details: for IC50: Homo sapiens, SK-OV-3, 72 hours; for IC50 Cancer cell line SK-OV-3: 72 hours, Table 3
Description: (§1) For measuring in vitro anticancer activity of 5′-deoxy-N^4-propargyloxycarbonyl-5-fluorocytosine-5′-carboxylic acid (R^3=propargyl, compound of 2a) using 5-Fu as a reference compound, cell toxicity to human cancer cell was evaluated. The cancer cells used were A549 (lung cancer), HCT15 (colon cancer), SK-OV-3 (ovarian cancer), and SK-MEL-2 (melanoma cancer).
(§2) The cancer cells were incubated in an incubator with a constant humidity at 37° C. and 5% CO2, and an RPMI medium with the addition of 10% fetal bovine serum was used for a basic medium. In order to identify cell toxicity, the cancer cells in a logarithmic phase were inoculated at 2-5×10^4 cells per well of a 96-well plate, and incubated for 24 hours. A sample solution of 5-FU and 5′-deoxy-N^4-propargyloxycarbonyl-5-flurocytosine-5′-carboxylic acid was stepwisely added to the well and incubated for 72 hours. 20 μl of 5 mg/ml MTT reacting solution dissolved in a physiological saline solution was added to the well of the incubated plate and incubated for 4 hours. The produced formazan crystal was dissolved in dimethylsulfoxide and absorbance of each well was measured at 540 nm to calculate a number of living cells. The absorbance of the well with the medium and without cell was set to 0%, that of the well without the sample was set to 100%, and the concentration corresponding to 50% was called an IC50 (μg/ml) value.
(§3) In order to measure anticancer activity of 5′-deoxy-N-alkyloxycarbonyl-5-fluorocytosine-5′-carboxylic acid (compound of Formula 2a) of the present invention using 5-FU as a control, the cell toxicity to human cancer cells was measured. The human cancer cells used were A549 (lung cancer), HCT15 (colon cancer), SK-OV-3 (ovarian cancer), and SK-MEL-2 (melanoma cancer).
(§4) The cancer cells were cultured in an incubator with a constant humidity at 37° C. and 5% CO2, and an RPMI medium with 10% fetal bovine serum was used for a medium. In order to measure cell toxicity, the cancer cells in a logarithmic phase were inoculated into 2 to 5×10^4 cells per well of a 96-well plate, incubated for 24 hours, and a sample solution of a stepwise dilution of 5-FU and 5′-deoxy-N^4-pentyloxycarbonyl-5-fluorocytocine-5′-carboxylic acid were added thereto followed by incubating for 72 hours. 20 μl of 5 mg/ml of MTT reacting solution dissolved in a physiological saline solution was added to each well of the incubated plate, incubated for 4 hours, the produced formazan crystal was dissolved in dimethylsulfoxide, and the absorbance of each well was measured at a wavelength of 540 nm to calculate the number of living cells.

[5] = test system: HCT15 (colon cancer); test: MTT cell toxicity to human cancer cells, HCT15; type: cell-based; details: for IC50: Homo sapiens, HCT-15, 72 hours; for IC50 Cancer cell line HCT15: 72 hours, Table 3
Description: as §1, §2, §3, §4

[6] = test system: SK-MEL-2 (melanoma cancer); test: MTT cell toxicity to human cancer cells, SK-MEL-2; type: cell-based; details: for IC50 Cancer cell line SK-MEL2: 72 hours, Table 3
Description: as §1, §2, §3, §4

[7] = test system: A549 (lung cancer); test: MTT cell toxicity to human cancer cells, A549; type: cell-based; details: for IC50 Cancer cell line A549: 72 hours, Table 3
Description: as §1, §2, §3, §4

Structure (SMILES) | Increased life span (%) ([1]; 5.8 mg/kg/day oral) | Average survival date ([1]; 5.8 mg/kg/day oral) | Increased life span (%) ([1]; 28.8 mg/kg/day oral) | Average survival date ([1]; 28.8 mg/kg/day oral) | Increased life span (%) ([2]; 0.13 mmol/kg/day oral) | Average life maintenance day ([2]; 0.13 mmol/kg/day oral) | Increased life span (%) ([2]; 0.67 mmol/kg/day oral) | Average life maintenance day ([2]; 0.67 mmol/kg/day oral) | Increased life span (%) ([2]; 1.5 mmol/kg/day oral) | Average life maintenance day ([2]; 1.5 mmol/kg/day oral) | Life maintenance rate (%) ([3]; 1.2 mg/kg/day oral) | Average life day ([3]; 1.2 mg/kg/day oral) | Life maintenance rate (%) ([3]; 5.8 mg/kg/day oral) | Average life day ([3]; 5.8 mg/kg/day oral) | Life maintenance rate (%) ([3]; 28.8 mg/kg/day oral) | Average life day ([3]; 28.8 mg/kg/day oral) | IC50 Cancer cell line SK-OV-3 [4] | IC50 Cancer cell line HCT15 [5] | IC50 Cancer cell line SK-MEL2 [6] | IC50 Cancer cell line A549 [7] | other results
CCCCCOC(=O)Nc1nc(=O)n([C@@H]2O[C@H](C)[C@@H](O)[C@H]2O)cc1F [Capecitabine, 5′-deoxy-N^4-(pentyloxycarbonyl)-5-fluorocytosine] | 8% | 19.2 days | 14% | 20.2 days | 6.8% | 9.4 days | 9.1% | 9.6 days | 42.0% | 12.5 days | 6% | 18.9 days | 8% | 19.2 days | 14% | 20.2 days |  |  |  |  | Increased life span (%) ([1]; 144 mg/kg/day oral): 15%; Average survival date ([1]; 144 mg/kg/day oral): 20.1 days; Increased life span (%) ([1]; 720 mg/kg/day oral): 30%; Average survival date ([1]; 720 mg/kg/day oral): 22.8 days; Life maintenance rate (%) ([3]; 144 mg/kg/day oral): 15%; Average life day ([3]; 144 mg/kg/day oral): 20.1 days; Life maintenance rate (%) ([3]; 720 mg/kg/day oral): 30%; Average life day ([3]; 720 mg/kg/day oral): 22.8 days
O=c1[nH]cc(F)c(=O)[nH]1 [Example 5-FU, 5-fluorouracil, reference compound] |  |  |  |  |  |  |  |  |  |  |  |  |  |  |  |  |  |  |  |  | IC50 ([4]; Table 1, read-out: IC50 Concentration (μg/ml) SK-OV-3): 0.03 µg/mL (≈ 0.231 µM); IC50 ([4]; Table 3, read-out: IC50 Cancer cell line SK-OV-3): 0.03 µg/mL (≈ 0.231 µM); IC50 ([5]; Table 1, read-out: IC50 Concentration (μg/ml) HCT15): 0.11 µg/mL (≈ 0.846 µM); IC50 ([5]; Table 3, read-out: IC50 Cancer cell line HCT15): 0.11 µg/mL (≈ 0.846 µM); Increased life span (%) ([2]; 0.15 mmol/kg/day): 62.5%; Average life maintenance day ([2]; 0.15 mmol/kg/day): 14.3 days; Increased life span (%) ([2]; 0.23 mmol/kg/day): 87.5%; Average life maintenance day ([2]; 0.23 mmol/kg/day): 16.5 days; IC50 ([6]; Homo sapiens, SK-MEL-2, 72 hours, Table 3, read-out: IC50 Cancer cell line SK-MEL2): 0.63 mg/L (≈ 4.84 µM); IC50 ([7]; Homo sapiens, A549, 72 hours, Table 3, read-out: IC50 Cancer cell line A549): 0.26 mg/L (≈ 2 µM)
C=CCOC(=O)Nc1nc(=O)n([C@@H]2O[C@H](C(=O)O)[C@@H](O)[C@H]2O)cc1F [Example 30, 5′-deoxy-N^4-(allyloxycarbonyl)-5-fluorocytosine-5′-carboxylic acid] |  |  |  |  |  |  |  |  |  |  | 25% | 22.1 days | 39% | 24.8 days | 44% | 25.7 days | 0.008 mg/L (≈ 0.0223 µM) | 0.032 mg/L (≈ 0.0891 µM) | 0.008 mg/L (≈ 0.0223 µM) | 0.04 mg/L (≈ 0.111 µM) | 
C#CCOC(=O)Nc1nc(=O)n([C@@H]2O[C@H](C(=O)O)[C@@H](O)[C@H]2O)cc1F [Example 3, 5′-deoxy-N^4-(propargyloxycarbonyl)-5-fluorocytosine-5′-carboxylic acid] | 11% | 20.6 days | 23% | 21.9 days |  |  |  |  |  |  | 8% | 20.1 days | 11% | 20.6 days | 23% | 21.9 days | 0.005 mg/L (≈ 0.014 µM) | 0.040 mg/L (≈ 0.112 µM) | 0.007 mg/L (≈ 0.0196 µM) | 0.005 mg/L (≈ 0.014 µM) | Increased life span (%) ([1]; 1.2 mg/kg/day oral): 8%; Average survival date ([1]; 1.2 mg/kg/day oral): 20.1 days; anticancer activity in vivo ([1]; summary of Table 2, animal experiment): good anticancer activity in vivo
CCOC(=O)Nc1nc(=O)n([C@@H]2O[C@H](C(=O)O)[C@@H](O)[C@H]2O)cc1F [Example 25, 5′-deoxy-N^4-(ethyloxycarbonyl)-5-fluorocytosine-5′-carboxylic acid] |  |  |  |  |  |  |  |  |  |  |  |  |  |  |  |  | 0.16 mg/L (≈ 0.461 µM) | 0.47 mg/L (≈ 1.35 µM) | 0.16 mg/L (≈ 0.461 µM) | 0.49 mg/L (≈ 1.41 µM) | 
CCCCCOC(=O)Nc1nc(=O)n([C@@H]2O[C@H](C(=O)O)[C@@H](O)[C@H]2O)cc1F [Example 28, 5′-deoxy-N^4-(pentyloxycarbonyl)-5-fluorocytosine-5′-carboxylic acid] |  |  |  |  | 3.4% | 9.1 days | 28.4% | 11.3 days | 91.9% | 16.8 days |  |  |  |  |  |  | 0.03 mg/L (≈ 0.0771 µM) | 0.12 mg/L (≈ 0.308 µM) | 0.03 mg/L (≈ 0.0771 µM) | 0.17 mg/L (≈ 0.437 µM) | 
